Results taken from patent US20230255988A1 (CORNELL UNIVERSITY, priority 2020, published 2023).
“Also recorded” adds a separate entry of the source.

Columns and labels:
Type in all cases: in vivo, human
[1] = system: amyloid positive patients with amnestic mild cognitive impairment (aMCI) or mild dementia due to AD; assay: AD Assessment Scale-Cognitive Subscale (ADAS-Cog), 12-month randomized placebo-controlled trial
Text: ADAS-cog served as the primary endpoint. […] Assignment of patients. […] Using blocked, stratified randomization design, patients were assigned to the treatment or control group. […] Within this group, a separate randomization schedule was generated using the proc plan function in SAS statistics program for those with an MMSE greater than or less than or equal to 26 to balance their allocation patients to placebo or treatment groups. Using a block size of four for a total of seventy-six patients, 19 blocks were created to help ensure balanced recruitment into treatment and control groups within strata. The schedule was generated in advance by the statistician and provided to the blinded pharmacist in charge of executing the randomization. Two randomization worksheets stratified by MMSE were provided to the pharmacist, who randomized the patients. […] The patients were enrolled by the clinical study team and randomized by the pharmacist. The assignment to the treatment or placebo group was known only to the pharmacist and kept behind a triple lock. The patients received numbered bottles. The trial duration per participant was twelve months. […] AD Assessment Scale-Cognitive Subscale (ADAS-Cog) was the primary outcome measure. It indicates the severity of the most important symptoms of Alzheimer's disease. It consists of 11 tasks measuring the disturbances of memory, language, praxis, attention and other cognitive abilities (S. Balsis et al., Alzheimer's & Dementia, 8, 288-294, 2012; […] al., International Psychogeriatrics, 9, 123-138, 1997). The primary clinical outcome was ADAS-Cog, and secondary outcomes included the CDR score and fluorodeoxyglucose ([…]) imaging of the brain. AGE levels were an exploratory outcome. The primary analysis followed Intention-to-Treat (ITT) and the secondary analysis was per-protocol. The per-protocol analysis omitted one placebo participant who took benfotiamine from a commercial vendor. The ITT and per-protocol analysis are presented for the primary outcome ADAS-cog and the secondary measure CDR. For the other measures, only per-protocol analysis are presented. The primary analysis was done on the ITT data. The Last-Observation-Carry-Forward (LOCF) method was used to impute the missing values of ADAS total score and the secondary endpoints such as CDR as well for each time point. The primary analysis was done on ITT data which were imputed with LOCF method. Per-protocol analysis was done as a sensitivity analysis and as observational comparisons (F. J. Molnar et al., Canadian Medical Association Journal, 179, 751, 2008).

[2] = system: brain glucose utilization; assay: FDG PET spatial covariance pattern score (SSM/PCA, CDR-derived)
Method: A multivariate machine learning approach was also applied to evaluate the FDG PET data (FIG. 10). Pattern-based methods have been increasingly applied to the evaluation of neurodegeneration and therapeutic response as they address the issue of complexity in comparing multiple regions and can increase signal to noise for analysis. Feature reduction was performed through use of the Scaled Subprofile Model (SSM), a form of Principal Components Analysis (PCA). The resulting components were used in regression modeling that determined spatial patterns of hypometabolism and hypermetabolism (or preservation relative to other regions) associated with the Clinical Dementia Rating (CDR) score.
Specifically, SSM by performing PCA on the PET-data array was run, with a subsequent brain-behavioral regression to derive a best-fitting pattern whose pattern scores correlates with the CDR score in a negative direction (i.e., the higher the pattern score, the lower the CDR).
To help with the imputation of the multivariate analysis, a generic multivariate decomposition was written as: Y(s,x)=w(s) v(x)+ε(s,x), where Y denotes the (log-transformed) data which depends on a participant and time index s and the voxel location x. […] The pattern score w(s) was chosen to correlate negatively with CDR across the data. The pattern v(x) is normalized to have unity Euclidean norm, i.e. ||v||=1. This means that the pattern score carries all information about the strength of the signal associated with the spatial pattern. Higher values of w(s) imply higher values of pattern-associated FDGPET signal in direct proportion in all regions.
To estimate the topographic robustness of any patterns of interest, a bootstrap resampling procedure was performed 10,000 times, for which data were resampled with replacement and the complete analytic recipe was executed on the resampled data, generating distribution for pattern loadings. […] For the correct interpretation, it is worth noting that positive and negative loadings describe only relative, and not absolute differences, in the signal associated with any covariance pattern. Since the residual signal in ε(s,x) was stripped off, there cannot be assurance that there are absolute differences in the total data for the regions with robust loadings.
After deriving and estimating the topographic robustness of the pattern, the pattern score was inspected for an effect of treatment at baseline and follow-up, also broken down by APOE ε4 status.

[3] = system: amyloid positive patients with amnestic mild cognitive impairment (aMCI) or mild dementia due to AD; assay: Buschke Selective Reminding Test (SRT), 12-month trial; settings: 12 months
Text: The trial duration per participant was twelve months. […] The Buschke Selective Reminding Test (SRT) is a standard diagnostic tool in the assessment of verbal memory. Several studies attest to its predictive value for dementia.

C/C(=C(\CCOP(=O)(O)O)SC(=O)c1ccccc1)N(C=O)Cc1cnc(C)nc1N [benfotiamine]
ADAS-cog change from baseline at 12 months ([1]; ITT analysis, 2×300 mg per day, 12 months, placebo 3.26): 1.39
ADAS-cog unadjusted change baseline to 12 months, difference versus placebo ([1]; ITT, mixed effect model p=0.071, GEE p=0.137, Wilcoxon p=0.098): favoring benfotiamine
ADAS score change Mean (SD), baseline to month 12 ([1]; Per-protocol, unadjusted, 2×300 mg per day, placebo 3.2 (5.66)): 0.96 (5.41)
ADAS-cog effect modification by APOE ε4 allele carrier status ([1]; exploratory): no effect modification
ADAS-cog effect modification by sex ([1]; exploratory, not statistically significant): males might have been more responsive
ADAS-cog response by baseline MMSE ([1]; post-hoc, MMSE>=26 p=0.027, MMSE<26 p=0.99): stronger response among those with a higher MMSE at baseline
CDR-derived FDG PET pattern, treatment effect in APOE ε4 negative population ([2]; 12 months, p=0.019): treatment effect at 12 months; also recorded: show a treatment effect
CDR-derived FDG PET pattern, treatment effect in APOE ε4 positive population ([2]; 12 months, p=0.255): not in APOE ε4 positive population; also recorded: do not
longitudinal change in pattern score (follow-up minus baseline), treated versus untreated ([2]; 59 participants who completed follow-up, p=0.638): No difference in longitudinal change
FDG PET pattern score at time point of 12 months, treatment versus untreated ([2]; FIG. 10A): slightly but significantly higher
FDG PET pattern score, change from baseline to 12 months versus untreated ([2]; all participants, APOE status not considered): significantly higher change from baseline to 12 months in treated than untreated participants
Buschke SRT score and change in score versus placebo ([3]; p=0.177, change 0.315): no significant change
Buschke SRT score course over time ([3]; placebo showed a downward trend): stable scores
